Paper PMC3437492 (British Journal of Pharmacology, 2012)
Where “and” joins values, the source holds several entries; their conditions need not be identical. Equal values may be shown once. Read-outs that look alike come from different tables or passages of the source.

Legend:
[1] = tested on: NA biosynthesis in P. falciparum-infected erythrocytes; assay: Effect on [3H]-hypoxanthine incorporation into nucleic acids; type: cell-based; conditions: for IC50: Plasmodium falciparum, Erythrocyte
[2] = biological target: T1, choline kinase (CK) (Plasmodium falciparum, UniProt Q8IM71)
T1 sequence (Q8IM71 1-440): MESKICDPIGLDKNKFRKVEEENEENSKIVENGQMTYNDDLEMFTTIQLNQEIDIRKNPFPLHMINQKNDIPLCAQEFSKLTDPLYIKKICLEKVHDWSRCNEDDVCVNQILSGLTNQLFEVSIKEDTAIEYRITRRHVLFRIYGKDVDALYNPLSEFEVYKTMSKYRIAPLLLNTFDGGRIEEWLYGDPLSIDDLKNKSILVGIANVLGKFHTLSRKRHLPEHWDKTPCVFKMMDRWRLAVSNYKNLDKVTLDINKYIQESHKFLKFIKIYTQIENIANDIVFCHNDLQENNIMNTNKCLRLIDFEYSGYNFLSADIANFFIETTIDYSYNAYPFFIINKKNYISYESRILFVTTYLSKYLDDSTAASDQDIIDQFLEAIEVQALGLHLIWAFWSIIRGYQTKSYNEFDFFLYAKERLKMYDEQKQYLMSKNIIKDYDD

[3] = tested on: parasite poly-specific cation carrier; conditions: for Type of inhibition: inhibition of albitiazolium entry
[4] = tested on: P. falciparum-infected erythrocytes; assay: Total choline entry into P. falciparum-infected erythrocytes; type: cell-based; conditions: no furosemide
[5] = tested on: erythrocyte choline carrier; conditions: normal erythrocytes, 37°C
[6] = tested on: parasite choline transporter (poly-specific cation transporter); assay: Choline entry into isolated; type: cell-based, P. falciparum
[7] = tested on: erythrocyte choline carrier; assay: Carrier-mediated choline entry into IRBC in the presence of 150 µM furosemide; type: cell-based, human
[8] = biological target: T2, choline/ethanolamine phosphotransferase (CEPT) (Plasmodium falciparum, UniProt C6KTB9)
T2 sequence (C6KTB9 1-391): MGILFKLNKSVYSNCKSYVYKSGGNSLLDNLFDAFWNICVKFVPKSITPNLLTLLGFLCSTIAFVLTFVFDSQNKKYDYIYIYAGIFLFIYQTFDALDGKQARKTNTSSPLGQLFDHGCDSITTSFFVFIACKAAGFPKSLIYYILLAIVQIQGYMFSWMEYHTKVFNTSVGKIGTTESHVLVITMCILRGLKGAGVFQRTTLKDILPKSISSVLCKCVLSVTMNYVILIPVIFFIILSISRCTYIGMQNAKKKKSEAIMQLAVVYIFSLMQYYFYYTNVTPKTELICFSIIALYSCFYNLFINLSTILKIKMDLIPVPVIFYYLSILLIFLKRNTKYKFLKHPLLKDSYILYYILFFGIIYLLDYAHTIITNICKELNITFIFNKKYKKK

[9] = biological target: T2, choline/ethanolamine phosphotransferase (CEPT); assay: biochemical; conditions: 0.5 h, read-out: Concentration for complete inhibition
[10] = tested on: human plasma-proteins; conditions: at 20 ng·mL^−1; no saturation until 5000 ng·mL^−1; ref unpublished observations; cited from earlier work
[11] = tested on: P. falciparum-IRBC; conditions: ref Wein et al., cited from earlier work
[12] = biological target: CTP:phosphocholine cytidylyltransferase (CCT) (Plasmodium falciparum, UniProt Q8IEE9); assay: CCT assay; type: biochemical
[13] = tested on: PE biosynthesis in P. falciparum-infected erythrocytes; assay: Effect on [3H]-ethanolamine incorporation into PL; type: cell-based; conditions: for IC50: read-out: PE50
[14] = tested on: P. falciparum 3D7 strain; type: cell-based
[15] = biological target: T1, choline kinase (CK); assay: biochemical
[16] = tested on: furosemide-sensitive NPP of P. falciparum IRBC; assay: Albitiazolium entry into P. falciparum-infected erythrocytes; type: cell-based
[17] = tested on: P. falciparum asexual blood stages; conditions: ref Vial et al., 2004; cited from earlier work
[18] = tested on: normal erythrocytes; assay: Albitiazolium entry into normal erythrocytes; type: cell-based, human; conditions: 30 µM albitiazolium, 8 min, 37°C
[19] = substrate: C[N+](C)(C)CCO; assay: cells, lysate or membranes named; conditions: other: CK; saturating ATP; pH 7.9

Chain of CTP:phosphocholine cytidylyltransferase (CCT) (Q8IEE9 1-896): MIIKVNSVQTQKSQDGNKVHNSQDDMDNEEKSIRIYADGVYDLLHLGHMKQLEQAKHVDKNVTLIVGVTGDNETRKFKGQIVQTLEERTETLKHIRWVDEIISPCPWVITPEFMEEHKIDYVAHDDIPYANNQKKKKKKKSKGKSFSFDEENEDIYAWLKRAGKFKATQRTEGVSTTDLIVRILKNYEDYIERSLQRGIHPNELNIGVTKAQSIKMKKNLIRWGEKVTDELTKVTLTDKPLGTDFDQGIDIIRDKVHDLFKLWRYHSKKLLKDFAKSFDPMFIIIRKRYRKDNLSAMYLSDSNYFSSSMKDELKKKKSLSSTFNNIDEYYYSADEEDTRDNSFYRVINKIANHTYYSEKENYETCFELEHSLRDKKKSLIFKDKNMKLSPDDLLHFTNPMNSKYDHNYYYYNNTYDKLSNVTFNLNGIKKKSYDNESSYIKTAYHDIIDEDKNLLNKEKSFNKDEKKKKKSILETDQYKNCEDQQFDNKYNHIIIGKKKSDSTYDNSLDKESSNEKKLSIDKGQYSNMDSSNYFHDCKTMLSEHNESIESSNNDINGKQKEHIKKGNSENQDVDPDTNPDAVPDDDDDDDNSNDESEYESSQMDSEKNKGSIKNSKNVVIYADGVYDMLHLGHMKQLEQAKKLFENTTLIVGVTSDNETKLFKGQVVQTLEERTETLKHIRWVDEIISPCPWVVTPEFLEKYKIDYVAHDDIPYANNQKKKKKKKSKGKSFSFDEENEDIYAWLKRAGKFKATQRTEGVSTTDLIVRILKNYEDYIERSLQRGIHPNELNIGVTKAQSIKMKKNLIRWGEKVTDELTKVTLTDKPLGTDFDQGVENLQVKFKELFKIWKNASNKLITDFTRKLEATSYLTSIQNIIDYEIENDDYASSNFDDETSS

Molecule: N=C(N)c1ccc(OCCCCCOc2ccc(C(=N)N)cc2)cc1 [pentamidine, reference compound]
- Effect on NA and PC synthesis ([1]; same conditions as albitiazolium, data not shown): affected primarily NA synthesis and not PC synthesis

Molecule: C[N+](C)(C)CCO [choline]
- Vmax [2]: 63.3 ± 11.6 pmol per 10^7 IRBC·min^−1
- Type of inhibition [3]: competitive inhibition
- Type of inhibition ([3]; listed as Choline): Competitive
- Ki ([3]; read-out: Ki on albitiazolium entry into parasites, Lineweaver–Burk): 321 µM
- Choline uptake rate ([4]; external concentration of 80 µM choline): 1.5 pmol per 10^7 IRBC·min^−1
- Vmax of choline entry [5]: 0.43 ± 0.05 pmol per 10^7 RBC·min^−1
- Km ([5]; read-out: Km of choline entry, n= 4): 12.2 ± 2.2 µM
- Vmax of parasite choline entry ([6]; Table 3): 23.3 ± 4.5 pmol per 10^7 IRBC·min^−1
- Vmax of choline entry ([6]; free parasites (Table 2)): 23.3 ± 4.5 pmol per 10^7 cells·min^−1
- Km ([6]; read-out: Km of choline entry, saponin-freed parasites, 10 min, 37°C): 18.5 ± 3.3 µM
- Vmax of choline entry ([7]; IRBC with 150 µM furosemide): 0.69 ± 0.23 pmol per 10^7 IRBC·min^−1 and 0.7 ± 0.2 pmol per 10^7 IRBC·min^−1
- Km ([7]; read-out: Km of choline entry, IRBC with 150 µM furosemide): 11 ± 2.4 µM

Molecule: C[N+](C)(C)CCOP(=O)(O)OP(=O)([O-])OC[C@H]1O[C@@H](n2ccc(N)nc2=O)[C@H](O)[C@@H]1O [CDP–choline]
- Vmax [8]: 17.0 ± 1.5 pmol per 10^7 IRBC·min^−1

Molecule: Cc1c(CCO)sc[n+]1CCCCCCCCCCCC[n+]1csc(CCO)c1C.[Br-].[Br-] [albitiazolium, 3,3′-(dodecane-1,12-diyl)bis[5-(2-hydroxyethyl)-4-methyl-1,3-thiazol-3-ium] dibromide]
- IC100 [9]: 100000 µM
- Concentration for complete inhibition [2]: 100 mM
- Binding to human plasma-proteins [10]: 33%
- Accumulation in P. falciparum-IRBC ([11]; external concentration of 100 nM, unpublished observations): 400 fold
- cellular accumulation ratio (CAR) ([11]; infected erythrocytes at mature stages, in preparation): ~400
- IC50 ([1]; 3 h, read-out: NA50, ring stage, [3H]-hypoxanthine, 3 h): 240 µM
- IC50 ([1]; 3 h, read-out: NA50, schizont stage, [3H]-hypoxanthine, 3 h): 160 µM
- IC50 ([1]; 3 h, read-out: NA50, trophozoite stage, [3H]-hypoxanthine, 3 h): 340 µM
- IC50 ([1]; read-out: NA50, range over the three stages): 160 to 340 µM
- Concentrations affecting NA biosynthesis relative to PC50 values ([1]; higher than the PC50, three stages): 13- to 80 fold
- Vmax of albitiazolium entry ([3]; free parasites (Table 2)): 6.1 ± 1.1 pmol per 10^7 cells·min^−1
- Vmax of albitiazolium entry ([3]; isolated parasites, 10 min, 37°C): 6.1 ± 1.1 pmol per 10^7 parasites·min^−1
- IC100 ([12]; 0.5 h, read-out: Concentration for complete inhibition): 100000 µM
- IC50 ([13]; Plasmodium falciparum, Erythrocyte, 3 h): > 1000 µM
- IC50 ([13]; Plasmodium falciparum, Erythrocyte): > 1000 µM
- IC50 ([13]; schizont stage, 2 µM [3H]-ethanolamine, 3 h): > 1000 µM
- IC50 ([13]; trophozoite stage, 2 µM [3H]-ethanolamine, 3 h): > 1000 µM
- Effect on ethanolamine incorporation ([13]; up to 10 µM): no significant effect
- Concentration from which choline entry is significantly inhibited ([4]; 15 µM choline): 4 µM
- Concentration for complete inhibition of choline entry ([4]; 15 µM choline, not reached): > 36 µM
- Type of interaction with choline ([14]; combination with choline): highly antagonized
- Type of interaction with ethanolamine ([14]; combination with ethanolamine): additive effect
- Type of interaction with serine ([14]; combination with serine): additive effect
- Decrease of antimalarial activity ([14]; in the presence of 6 mM choline): 28 fold
- IC50 [15]: 1500 µM
- Vmax of albitiazolium entry ([16]; 8 min, 37°C): 47.9 ± 4.9 pmol per 10^7 IRBC·min^−1
- Km ([16]; read-out: apparent Km of albitiazolium entry, 8 min, 37°C): 20.6 ± 4.3 µM
- Concentration for complete inhibition of choline entry ([6]; 15 µM choline): 10 µM
- Type of inhibition ([6]; inhibition of choline entry): Competitive
- IC50 ([6]; read-out: IC50 on choline entry into parasites, 15 µM choline, 10 min): 2.3 ± 0.2 µM
- Ki ([6]; read-out: Ki on choline entry into parasites, Lineweaver–Burk): 0.53 µM
- Concentration for complete inhibition of choline entry ([7]; 15 µM choline, 150 µM furosemide): 12 µM
- Type of inhibition ([7]; 150 µM furosemide): competitive inhibition
- Ki ([7]; read-out: Ki on choline entry, 150 µM furosemide, Lineweaver–Burk): 3.1 µM
- Concentration effective at treating malaria in vitro [17]: ~10 nM
- Albitiazolium entry rate [18]: lower than 0.01 pmol per 10^7 RBC·min^−1

Molecule: C[N+](C)(C)CCOP(=O)(O)O [phosphocholine]
- Vmax ([12]; CCT): 5.2 ± 1.4 pmol per 10^7 IRBC·min^−1
- Km ([12]; read-out: Km for choline-containing substrate, CCT, saturating CTP): 511 ± 24.8 µM

B1: choline kinase (CK) (Plasmodium falciparum 3D7) (protein)
chain: T1 sequence (Q8IM71 1-440)
- Km [19]: 31.2 ± 4.1 µM
